Measured values reported in the supplement of paper PMC10307832.

Experiments:
Assay in all cases: relative viability (nuclei count vs DMSO), 5 days (fraction); higher = more cells survive
Shikonin + Navitoclax = compound: CC(C)=CC[C@@H](O)C1=CC(=O)c2c(O)ccc(O)c2C1=O [Shikonin] + CC1(C)CCC(c2ccc(Cl)cc2)=C(CN2CCN(c3ccc(C(=O)NS(=O)(=O)c4ccc(N[C@H](CCN5CCOCC5)CSc5ccccc5)c(S(=O)(=O)C(F)(F)F)c4)cc3)CC2)C1 [Navitoclax] (partner 0.5 µM)
Summary of the method: (§1)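 Lung cancer cell lines in 1536-well plates were dosed by pin tool the day after seeding, either with one drug alone or with a fixed anchor-drug dose plus five library-drug doses (not always all listed) in √10 steps. After 5 days, cells were fixed and their nuclei stained in one step (final 0.05% Triton X-100, 1% formaldehyde, 1 ug/ml Hoechst), then counted on 4× images. Relative viability is the nuclei count in treated wells divided by that in vehicle wells. Values are medians of duplicate plates.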

[1] = compound: CC(C)N(CCCNC(=O)Nc1ccc(C(C)(C)C)cc1)C[C@H]1O[C@@H](n2ccc3c(N)ncnc32)[C@H](O)[C@@H]1O
Summary of the method: (§2)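 Lung cancer cell lines in 1536-well plates were kept overnight at 37 °C, then pinned with five library-drug doses (not always all listed) spaced by √10 on vehicle-anchored plates. After 5 days without medium change, cells were fixed, permeabilised and Hoechst-stained in one step, imaged at 4×, and nuclei were counted with MetaXpress. Viability is treated-well nuclei divided by vehicle-well nuclei, taken as the median over plates. Plates passed only with control CV below 25% and at least one doubling.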

Shikonin = compound: CC(C)=CC[C@@H](O)C1=CC(=O)c2c(O)ccc(O)c2C1=O [Shikonin]
Summary of the method: as §2

Shikonin + Foretinib = compound: CC(C)=CC[C@@H](O)C1=CC(=O)c2c(O)ccc(O)c2C1=O [Shikonin] + COc1cc2c(Oc3ccc(NC(=O)C4(C(=O)Nc5ccc(F)cc5)CC4)cc3F)ccnc2cc1OCCCN1CCOCC1 [Foretinib] (partner 0.25 µM)
Summary of the method: as §1

Cell Line | relative viability (Shikonin + Navitoclax; first compound 0.01 µM) | relative viability (Shikonin + Navitoclax; first compound 0.1 µM) | relative viability (Shikonin + Navitoclax; first compound 0.3162 µM) | relative viability (Shikonin + Navitoclax; first compound 1 µM) | relative viability ([1]; 0.08 µM) | relative viability ([1]; 0.253 µM) | relative viability ([1]; 0.8 µM) | relative viability ([1]; 2.53 µM) | relative viability ([1]; 8 µM) | relative viability (Shikonin; 0.01 µM) | relative viability (Shikonin; 0.1 µM) | relative viability (Shikonin; 0.3162 µM) | relative viability (Shikonin; 1 µM) | relative viability (Shikonin + Foretinib; first compound 0.01 µM) | relative viability (Shikonin + Foretinib; first compound 0.1 µM) | relative viability (Shikonin + Foretinib; first compound 0.3162 µM) | relative viability (Shikonin + Foretinib; first compound 1 µM)
HCC-44 | 1.04 | 0.909 | 1.1 | 1.07 | 0.989 | 1.04 | 0.789 | 0.976 | 0.93 | 1 | 1.05 | 1.03 | 1.09 |  |  |  | 
HCC-827 | 1.02 | 1.08 | 0.99 | 0.998 | 1.03 | 1.06 | 0.584 | 1.01 | 0.961 | 1.04 | 1.04 | 1.04 | 1.06 | 0.976 | 1.15 | 1.06 | 1.08
NCI-H1623 |  |  |  |  | 0.947 | 0.968 | 0.934 | 0.911 | 1.01 | 0.934 | 0.817 | 1.08 | 1.07 | 0.874 | 0.866 | 1.06 | 0.917
NCI-H2405 | 0.962 | 0.922 | 1.16 | 0.837 | 1.02 | 0.974 | 0.931 | 1.06 | 0.966 | 0.998 | 1.04 | 1.08 | 1.02 | 1.06 | 1.08 | 1.15 | 1.03
RERF-LC-KJ | 0.835 | 0.996 | 0.758 | 1.11 | 0.951 | 1.05 | 0.966 | 0.968 | 0.912 | 1.09 | 0.986 | 1.02 | 1.03 | 0.904 | 0.961 | 0.903 | 0.908
NCI-H1651 | 1.03 | 0.98 | 1.01 | 1.06 | 0.963 | 0.918 | 0.92 | 1 | 0.957 | 1.09 | 0.919 | 1.01 | 1.02 | 0.883 | 0.758 | 0.93 | 0.714
HARA | 1.14 | 1.13 | 1.15 | 1.13 | 0.882 | 0.954 | 0.62 | 0.774 | 0.784 | 0.931 | 1.21 | 1.07 | 1.22 | 0.936 | 1.13 | 0.865 | 0.883
NCI-H1650 | 1.3 | 1.24 | 1.05 | 1.07 | 0.865 | 0.909 |  | 0.952 | 0.934 | 0.914 | 0.992 | 0.782 | 0.962 | 1.18 | 1.07 | 0.985 | 1.32
NCI-H1395 | 1.18 | 1.16 | 1.14 | 1.09 | 0.838 | 0.782 | 0.646 | 0.933 | 0.799 | 0.899 | 0.987 | 0.846 | 0.987 | 0.955 | 0.949 | 0.948 | 0.939
NCI-H520 |  | 1.1 | 1.19 | 1 | 0.882 | 0.773 | 0.793 | 0.98 | 0.939 | 0.947 | 1.06 | 0.977 | 0.931 | 0.801 | 0.759 | 0.8 | 0.696
NCI-H1563 |  |  |  |  | 0.918 | 0.849 | 0.944 | 1.03 | 0.957 | 0.944 | 0.954 | 1.01 | 0.959 | 0.935 | 0.848 | 1.06 | 0.902
ABC-1 |  |  |  |  | 0.859 | 0.797 |  | 1.05 | 1.01 | 0.921 | 1.13 | 0.91 | 0.764 | 1.14 | 0.993 | 0.927 | 1.04
NCI-H522 |  |  |  |  | 0.868 | 0.898 | 0.885 | 0.99 | 0.997 | 0.962 | 1.09 | 0.955 | 0.956 |  |  |  | 
SW 900 |  |  |  |  | 0.787 | 0.705 |  | 0.886 | 0.812 | 0.746 | 0.918 | 0.709 | 0.851 | 1.04 | 0.987 | 0.915 | 0.801
NCI-H1792 | 0.607 | 0.639 | 0.58 | 0.778 | 1.06 |  | 0.812 | 0.912 | 0.99 | 0.987 | 0.991 | 0.922 | 1.22 |  |  |  | 
LCLC-103H |  |  |  |  | 0.946 | 0.966 | 0.857 | 0.839 | 1.01 | 0.946 | 1.2 | 1.05 | 1.08 | 0.875 | 0.847 | 0.953 | 0.942
NCI-H358 |  |  |  |  | 0.856 | 0.873 | 1.04 | 0.924 | 0.889 | 0.978 | 0.862 | 0.967 | 0.979 | 0.651 | 0.729 | 0.707 | 0.604
NCI-H1648 |  |  |  |  | 0.756 | 0.935 | 0.68 | 0.784 | 0.823 | 0.911 | 0.686 | 1.07 | 1.08 |  |  |  | 
NCI-H650 |  |  |  |  | 0.831 | 0.902 | 1.06 | 0.775 | 0.882 | 1.08 | 0.937 | 0.999 | 0.913 | 1.01 | 0.999 | 1.08 | 1.01
NCI-H2342 |  |  |  |  | 1.01 | 1.08 | 0.815 | 1.01 | 1.05 | 0.941 | 0.943 | 1.11 | 0.991 | 1 | 1.12 | 1.03 | 1.03
NCI-H661 |  |  |  |  | 1.04 | 0.962 | 1.04 | 1.02 | 1 | 1 | 1.06 | 1.06 | 0.928 | 0.987 | 1.08 | 1.09 | 0.976
